In patent US20080108645A1, “Dihydrotetrabenazines And Pharmaceutical Compositions Containing Them” (CAMBRIDGE LABORATORIES, (IRELAND), LTD., priority 2004, published 2008):
Entries after “also recorded” stand apart in the source; their conditions may differ.

Tests used:
Male Sprague-Dawley rats = test: Spontaneous locomotor activity in rats (sedative properties); assay type: in vivo, rat
Procedure: A study was carried out in rats to determine whether the dihydrotetrabenazine isomers of the invention have sedative properties. The effects of the isomers on spontaneous locomotor activity in rats were compared with the effects produced by tetrabenazine and haloperidol using the methods set out below.
Male Sprague-Dawley rats, (Charles River Laboratories, Saint-Germain/L'Arbresle, France), weighing 200-250 g at the beginning of the study, were used for the studies. The rats were housed, 2 or 3 per cage, in Makrolon type III cages, in a room set up with the following environmental conditions: temperature: 20±2° C., humidity: minimum 45%, air changes: >12 per hour, light/dark cycle of 12 h/12 h [on at 7:00 a.m.]. The rats were allowed to acclimatize to their conditions for at least five days before commencement of the study. The rats received food (Dietex, Vigny, France, ref. 811002) and water (tap water in water bottle) ad libitum.
Solutions of each test compound in corn oil were freshly prepared on the day of the experiment. Haloperidol was prepared in hydroxyethylcellulose, 0.5% in deionized water. Either the vehicle or the test compounds were administered as a single dose (0.3, 1, 3 and 10 mg/kg, 2 mL/kg i.p.). The reference compound haloperidol (1 mg/kg) was administered i.p. (2 mL/kg).
The animals were placed in plexiglass cages under a video camera in a room with low light intensity (maximum 50 lux). At forty five minutes and 3 hours after administration, locomotor activity was determined during 20 minute periods using a video image analyzer (Videotrack, View Point, France). Locomotor activity was recorded in the reference group (haloperidol) at 1 hour after administration. The number and duration of ambulatory movements and duration of inactivity was measured. At the end of the locomotor activity measurement (45 minutes and 3 hours), palpebral closure and arousal were be scored as follows in the plexiglass cage:
The number of occurrences and duration (in seconds) of ambulatory (large) movements and the duration of periods of inactivity (seconds) was determined during two 20 minute periods (45 minutes and 3 hours after administration) using a video image analyzer (Videotrack, ViewPoint, Lyon, France). Image tracking was performed using a video camera placed above the plexiglass cage, recording overall locomotor activity. Images recorded with the video camera were digitalized and displacement of the centre of gravity of the digital image spots was tracked and analyzed using the following method: the speed of displacement of the centre of gravity of the spot was measured and two threshold values were set to define the type of movement: threshold 1 (high speed) and threshold 2 (low speed). When the animal moved and the speed of displacement of the centre of gravity of the spot was above threshold 1, the movement was considered as an ambulatory movement.
The results were expressed as the means±SEMs of the 12 individual values. Statistical analyses were carried out using ANOVA (one way) and Dunnett's t-test and with the non parametric test of Kruskal-Wallis followed by a Mann & Whitney U-test for the sedation cotation. A p value of p<0.05 was taken as indicating significance.

VMAT2 = VMAT2 (Homo sapiens, UniProt Q05940); settings: Erickson et al. (1996); cited from earlier work
Dopamine D2L Receptor = molecular target: T1, Dopamine D2L Receptor (Homo sapiens, UniProt P14416); test: Dopamine D2L receptor radioligand binding; settings: 10 μM; 0.16 nM [3H] Spiperone
T1 construct: expressed in transfected cells; host or cells: CHO cells
Procedure: (§1) (a) Adrenergic α2A Receptor: • Reference: S. Uhlen et al. J. Pharmacol. Exp. Ther., 271:1558-1565 (1994) • Source: Human recombinant insect Sf9 cells • Ligand: 1 nM [^3H] […] J. Pharmacol., 99:803-809, (1990) • Source: Wistar rat cerebral cortex • Ligand: 2 nM [3H]

Caco-2 monolayer = settings: for Recovery: human, Caco-2, 1 h, 50 μM, pH 7.4
Description: (§2) The assay relies on the ability of Caco-2 cells to differentiate into enterocytes when cultured on a microporous filter for a period of approximately 21 days. During the culture period, the Caco-2 cells undergo spontaneous morphological and biochemical changes, which produce a polarized monolayer with a well-defined brush border on the apical surface, as well as tight cellular junctions. Therefore, these cells may be used as an in vitro model for the analysis of drug permeability.
(§3) Absorption across the Caco-2 monolayer can be measured in two directions: apical-to-basolateral or basolateral-to-apical, by adding the compound to the apical or the basolateral chamber, respectively. At various time-points, samples are collected from the receiver-chamber for analysis for the rate of absorption as measured by the apparent permeability coefficient (Papp) across the monolayer.
(§4) The Papp value reflects a combination of the test article permeability through both transcellular (through cell membranes) and the paracellular (across the tight junctions between the cells) pathways. The relative contribution of these pathways depends upon the pKa, partition coefficient (log D), molecular radius, and charge of the test article at a given pH. Papp values can then be used to rank-order compounds for their permeability through Caco-2 monolayers.
(§5) Absorption was determined at pH 7.4 across cell monolayers in the apical-to-basolateral direction. Caco-2 cells used to estimate Papp values were grown for 26 days on Transwell inserts in 12-well plates. Monolayer integrity was verified before and after the absorption assay by the methods of transepithelial electrical resistance (Ohm-cm^2) and Lucifer Yellow.
(§6) On the day of the assay, the reference standards were diluted in Hank's balanced salt solution (HBSS), pH 7.4 to a final concentration of 50 μM. […] Dihydrotetrabenazine isomer samples were prepared at a concentration of 50 mM in DMSO. Each stock solution was further diluted in HBSS buffer (pH 7.4) to a final working concentration of 50 μM
(§7) The Caco-2 cell suspensions were prepared as follows. […] Once the cell density and viability were determined, Caco-2 cells were diluted in culture medium to a final working concentration of 2.0×10^5 cells/ml. The Caco-2 culture medium contained Dulbecco's Modified Eagle Medium, 10% fetal bovine serum, 100 μM non-essential amino acids, 100 U/ml penicillin and 100 μg/ml streptomycin.
(§8) Costar polycarbonate membranes (0.4 μm pore size) were pre-equilibrated with Caco-2 culture medium for 1 hour in a 37° C. water-jacketed incubator with 5% CO2. The content of the apical chamber was removed and replaced with 500 μl of Caco-2 cell suspension (200 000 cells/ml). Cells were further maintained in culture for 26 days in a 37° C. water-jacketed incubator with 5% CO2.
(§9) Prior to the assay, all monolayers were washed twice with HBSS and their transepithelial electrical resistance (TEER) was measured with a Millicell-ERS meter. TEER values obtained in the absence of cells were subtracted as background signal. Only monolayer with TEER values over 150 Ohm-cm^2 were used for the absorption assay experiment.
(§10) All absorption experiments were conducted in triplicate at pH 7.4. The rate of absorption of each reference standard and dihydrotetrabenazine test article was assessed in the apical-to-basolateral direction. Aliquots (100 μl) of each working solution (reference standards and test articles at 50 μM) were set aside at the beginning of the assay for the determination of the initial concentration (Co).
(§11) Absorption experiments were initiated by replacing the content of the donor chamber with 500 μl of Hanks Balanced Salt Solution containing test articles or reference compounds. Cells were returned to the CO2 incubator for the absorption assay. Samples of 100 μl were collected from the receiver and donor chambers after 1 hour and were used to determine the percentage of recovery.

[1] = molecular target: T2, Serotonin Transporter (SERT) (Homo sapiens, UniProt P31645); test: Serotonin transporter (SERT) radioligand binding; settings: 10 μM; 0.15 nM [125I] RTI-55
T2 construct: expressed in transfected cells; host or cells: HEK-293 cells
Procedure: as §1

Adrenergic α2B Receptor = molecular target: T3, Adrenergic α2B Receptor (Homo sapiens, UniProt P18089); test: Adrenergic α2B receptor radioligand binding; settings: 10 μM; 2.5 nM [3H] Rauwolscine
T3 construct: expressed in transfected cells; host or cells: CHO-K1 cells
T3 sequence (P18089 1-450): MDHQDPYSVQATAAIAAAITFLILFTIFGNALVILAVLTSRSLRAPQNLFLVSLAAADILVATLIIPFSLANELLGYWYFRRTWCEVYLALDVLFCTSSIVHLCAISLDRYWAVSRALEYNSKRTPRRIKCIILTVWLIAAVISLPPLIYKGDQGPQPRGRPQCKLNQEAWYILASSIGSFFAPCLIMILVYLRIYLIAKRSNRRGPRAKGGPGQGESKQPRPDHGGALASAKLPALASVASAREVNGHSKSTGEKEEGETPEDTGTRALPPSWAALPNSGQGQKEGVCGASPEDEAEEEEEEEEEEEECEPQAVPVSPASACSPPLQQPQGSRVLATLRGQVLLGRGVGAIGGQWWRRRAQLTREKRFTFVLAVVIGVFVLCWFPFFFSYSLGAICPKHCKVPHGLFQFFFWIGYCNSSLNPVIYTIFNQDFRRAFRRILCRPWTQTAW
Procedure: as §1

Adrenergic α2A Receptor = molecular target: T4, Adrenergic α2A Receptor (Homo sapiens, UniProt P08913); test: Adrenergic α2A receptor radioligand binding; settings: 10 μM; 1 nM [3H] MK-912
T4 construct: expressed in transfected cells; host or cells: insect Sf9 cells
T4 sequence (P08913 1-465): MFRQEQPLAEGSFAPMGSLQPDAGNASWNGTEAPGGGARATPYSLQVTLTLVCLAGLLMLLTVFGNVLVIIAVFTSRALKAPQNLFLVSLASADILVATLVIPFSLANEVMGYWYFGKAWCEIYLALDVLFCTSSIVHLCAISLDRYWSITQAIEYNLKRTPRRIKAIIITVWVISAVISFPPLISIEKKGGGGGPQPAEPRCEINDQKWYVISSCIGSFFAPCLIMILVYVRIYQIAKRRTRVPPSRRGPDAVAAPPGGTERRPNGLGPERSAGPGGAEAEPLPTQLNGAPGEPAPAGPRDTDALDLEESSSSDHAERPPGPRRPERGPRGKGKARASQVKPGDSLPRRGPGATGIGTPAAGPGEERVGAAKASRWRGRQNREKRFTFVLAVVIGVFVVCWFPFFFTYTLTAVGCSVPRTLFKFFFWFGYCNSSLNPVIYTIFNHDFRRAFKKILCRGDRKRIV
Procedure: as §1

Dopamine D1 Receptor = molecular target: T5, Dopamine D1 Receptor (Homo sapiens, UniProt P21728); test: Dopamine D1 receptor radioligand binding; settings: 10 μM; 1.4 nM [3H] SCH-23390
T5 construct: expressed in transfected cells; host or cells: CHO cells
Procedure: as §1

[2] = molecular target: T6, Dopamine Transporter (DAT) (Homo sapiens, UniProt Q01959); test: Dopamine transporter (DAT) radioligand binding; settings: 10 μM, 0.15 nM [125I] RTI-55
T6 construct: expressed in transfected cells; host or cells: CHO cells
Procedure: as §1

[3] = tested on: Imidazoline I2 (Central) Receptor; test: Imidazoline I2 (central) receptor radioligand binding; parameters: species or system Wistar rat; settings: 10 μM; 2 nM [3H] Idazoxan
Procedure: as §1

Sigma σ1 Receptor = molecular target: T7, Sigma σ1 Receptor (Homo sapiens, UniProt Q99720); test: Sigma σ1 receptor radioligand binding; settings: 10 μM; 8 nM [3H] Haloperidol
T7 construct: Source: Human jurkat cells; endogenous in cells; host or cells: Jurkat cells
Procedure: as §1

Dopamine D3 Receptor = molecular target: T8, Dopamine D3 Receptor (Homo sapiens, UniProt P35462); test: Dopamine D3 receptor radioligand binding; settings: 10 μM; 0.7 nM [3H] Spiperone
T8 construct: expressed in transfected cells; host or cells: CHO cells
Procedure: as §1

Sigma σ2 Receptor = molecular target: T9, Sigma σ2 Receptor (Rattus norvegicus, UniProt Q5U3Y7); test: Sigma σ2 receptor radioligand binding; parameters: species or system Wistar rat; settings: 3 nM [3H] Ifenprodil
T9 construct: Source: Wistar rat brain; from tissue; host or cells: Wistar rat brain
T9 sequence (Q5U3Y7 1-176): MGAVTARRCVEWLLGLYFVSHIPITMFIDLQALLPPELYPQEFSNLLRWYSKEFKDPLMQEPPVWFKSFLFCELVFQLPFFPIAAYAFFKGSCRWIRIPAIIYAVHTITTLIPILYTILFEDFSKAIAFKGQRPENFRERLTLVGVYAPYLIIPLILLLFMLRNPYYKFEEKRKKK
Procedure: as §1

in vitro = settings: human, Caco-2, pH 7.4
Description: as §2, §3, §4, §5, §6, §7, §8, §9, §10, §11

[4] = 0.3 mg/kg i.p., 45 minutes after administration
[5] = 0.3 mg/kg i.p., 3 hours after administration
[6] = 1 mg/kg i.p., 45 minutes after administration
[7] = 1 mg/kg i.p., 3 hours after administration
[8] = 3 mg/kg i.p., 45 minutes after administration
[9] = 3 mg/kg i.p., 3 hours after administration
[10] = 10 mg/kg i.p., 45 minutes after administration
[11] = 10 mg/kg i.p., 3 hours after administration

T2 sequence (P31645 whole entry): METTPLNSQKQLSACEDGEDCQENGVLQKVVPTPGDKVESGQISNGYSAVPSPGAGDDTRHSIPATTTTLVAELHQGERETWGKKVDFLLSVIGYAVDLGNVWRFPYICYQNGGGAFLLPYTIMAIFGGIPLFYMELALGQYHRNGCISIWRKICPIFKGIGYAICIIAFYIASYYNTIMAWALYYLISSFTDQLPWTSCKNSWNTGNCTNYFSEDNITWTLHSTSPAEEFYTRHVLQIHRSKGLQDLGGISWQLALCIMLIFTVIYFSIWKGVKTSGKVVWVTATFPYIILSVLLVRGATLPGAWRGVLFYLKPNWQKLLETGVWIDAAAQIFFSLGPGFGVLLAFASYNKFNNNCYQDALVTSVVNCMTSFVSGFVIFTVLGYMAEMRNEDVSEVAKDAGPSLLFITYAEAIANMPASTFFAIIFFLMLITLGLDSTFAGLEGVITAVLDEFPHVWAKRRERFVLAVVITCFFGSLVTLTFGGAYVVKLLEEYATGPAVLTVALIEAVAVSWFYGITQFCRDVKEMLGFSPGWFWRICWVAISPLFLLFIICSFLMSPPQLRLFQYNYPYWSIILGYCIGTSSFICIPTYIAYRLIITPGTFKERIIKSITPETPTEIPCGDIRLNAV
T8 sequence (P35462 whole entry): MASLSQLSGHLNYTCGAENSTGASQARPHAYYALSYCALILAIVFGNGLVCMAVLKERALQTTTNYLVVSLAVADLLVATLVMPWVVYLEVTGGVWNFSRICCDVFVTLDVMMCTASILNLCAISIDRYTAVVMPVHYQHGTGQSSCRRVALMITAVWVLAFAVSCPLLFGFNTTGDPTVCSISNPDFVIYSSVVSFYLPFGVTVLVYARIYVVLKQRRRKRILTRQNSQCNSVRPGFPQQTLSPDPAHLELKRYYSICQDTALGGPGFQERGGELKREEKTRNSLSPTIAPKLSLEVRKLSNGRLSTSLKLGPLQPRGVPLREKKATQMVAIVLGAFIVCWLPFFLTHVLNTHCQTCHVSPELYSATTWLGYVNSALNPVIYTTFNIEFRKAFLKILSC
T6 sequence (Q01959 whole entry): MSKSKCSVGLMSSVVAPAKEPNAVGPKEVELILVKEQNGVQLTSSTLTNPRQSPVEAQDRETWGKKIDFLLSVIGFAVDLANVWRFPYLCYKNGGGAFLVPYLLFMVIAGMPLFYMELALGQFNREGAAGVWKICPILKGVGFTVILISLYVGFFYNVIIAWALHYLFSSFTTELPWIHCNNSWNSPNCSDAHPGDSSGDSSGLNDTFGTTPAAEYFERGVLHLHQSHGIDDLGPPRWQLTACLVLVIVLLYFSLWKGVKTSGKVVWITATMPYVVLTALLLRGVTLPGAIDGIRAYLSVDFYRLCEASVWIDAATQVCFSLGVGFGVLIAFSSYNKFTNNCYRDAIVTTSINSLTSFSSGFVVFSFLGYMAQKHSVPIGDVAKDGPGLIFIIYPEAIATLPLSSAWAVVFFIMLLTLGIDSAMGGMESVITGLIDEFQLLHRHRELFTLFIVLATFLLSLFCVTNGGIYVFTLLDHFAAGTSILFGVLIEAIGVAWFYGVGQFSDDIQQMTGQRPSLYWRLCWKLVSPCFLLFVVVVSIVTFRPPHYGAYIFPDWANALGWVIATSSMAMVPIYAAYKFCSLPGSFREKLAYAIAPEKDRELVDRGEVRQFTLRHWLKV
T5 sequence (P21728 whole entry): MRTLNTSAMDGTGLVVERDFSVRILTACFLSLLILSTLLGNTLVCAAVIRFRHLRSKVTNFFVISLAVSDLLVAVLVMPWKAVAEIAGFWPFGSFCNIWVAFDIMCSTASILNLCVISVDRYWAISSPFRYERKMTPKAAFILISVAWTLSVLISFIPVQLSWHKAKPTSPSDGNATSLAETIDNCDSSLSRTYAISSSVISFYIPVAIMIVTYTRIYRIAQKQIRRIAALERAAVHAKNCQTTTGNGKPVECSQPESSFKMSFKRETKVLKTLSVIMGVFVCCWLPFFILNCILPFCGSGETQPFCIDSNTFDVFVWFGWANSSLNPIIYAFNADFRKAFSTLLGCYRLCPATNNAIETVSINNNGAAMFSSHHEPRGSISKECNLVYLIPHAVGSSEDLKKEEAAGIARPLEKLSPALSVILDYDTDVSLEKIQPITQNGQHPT
T1 sequence (P14416 whole entry): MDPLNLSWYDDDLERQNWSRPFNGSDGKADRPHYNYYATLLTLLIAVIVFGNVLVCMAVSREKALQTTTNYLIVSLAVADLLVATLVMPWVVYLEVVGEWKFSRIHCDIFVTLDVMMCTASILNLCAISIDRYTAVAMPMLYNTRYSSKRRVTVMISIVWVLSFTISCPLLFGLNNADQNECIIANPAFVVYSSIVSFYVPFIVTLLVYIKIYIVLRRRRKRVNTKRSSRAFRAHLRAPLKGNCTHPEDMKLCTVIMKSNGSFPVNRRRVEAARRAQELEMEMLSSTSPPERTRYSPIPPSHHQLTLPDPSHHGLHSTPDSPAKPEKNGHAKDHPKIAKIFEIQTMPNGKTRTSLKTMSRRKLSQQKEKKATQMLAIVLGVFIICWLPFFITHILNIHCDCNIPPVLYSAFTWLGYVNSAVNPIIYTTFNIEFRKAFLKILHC
T7 sequence (Q99720 whole entry): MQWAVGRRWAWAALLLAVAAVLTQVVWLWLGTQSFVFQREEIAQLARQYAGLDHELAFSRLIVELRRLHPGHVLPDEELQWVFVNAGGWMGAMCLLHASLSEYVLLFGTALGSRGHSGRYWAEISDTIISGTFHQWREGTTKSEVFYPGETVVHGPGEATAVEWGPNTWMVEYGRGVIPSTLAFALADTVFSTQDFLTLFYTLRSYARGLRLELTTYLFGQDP
Chain of VMAT2 (Q05940 whole entry): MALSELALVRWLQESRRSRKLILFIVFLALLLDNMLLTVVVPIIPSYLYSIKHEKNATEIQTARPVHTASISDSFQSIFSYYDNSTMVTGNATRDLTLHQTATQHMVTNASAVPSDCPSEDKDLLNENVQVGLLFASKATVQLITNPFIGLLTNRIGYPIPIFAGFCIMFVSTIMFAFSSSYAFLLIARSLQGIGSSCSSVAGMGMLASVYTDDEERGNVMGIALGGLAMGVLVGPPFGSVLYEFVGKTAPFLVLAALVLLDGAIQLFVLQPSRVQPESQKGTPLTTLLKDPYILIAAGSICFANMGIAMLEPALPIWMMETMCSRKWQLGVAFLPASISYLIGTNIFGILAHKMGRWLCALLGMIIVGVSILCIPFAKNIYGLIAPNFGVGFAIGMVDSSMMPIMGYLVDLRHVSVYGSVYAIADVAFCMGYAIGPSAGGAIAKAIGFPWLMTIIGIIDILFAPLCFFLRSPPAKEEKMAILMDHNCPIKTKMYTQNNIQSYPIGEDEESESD

COc1cc2c(cc1OC)C1CC(=O)C(CC(C)C)CN1CC2 (racemic) [Tetrabenazine, 1,3,4,6,7,11b-hexahydro-9,10-dimethoxy-3-(2-methylpropyl)-2H-benzo(a)quinolizin-2-one]
Inactivity Duration (Male Sprague-Dawley rats; [4]): 390.4 ± 37.4 s
Large movements Duration (Male Sprague-Dawley rats; [4]): 66.8 ± 10.7 s
Large movements Occurrence (Male Sprague-Dawley rats; [4]): 253 ± 32
Inactivity Duration (Male Sprague-Dawley rats; [5]): 545.9 ± 37.1 s
Large movements Duration (Male Sprague-Dawley rats; [5]): 24.3 ± 4.2 s
Large movements Occurrence (Male Sprague-Dawley rats; [5]): 96 ± 14
Inactivity Duration (Male Sprague-Dawley rats; [6]): 456.5 ± 50.5 s
Large movements Duration (Male Sprague-Dawley rats; [6]): 46.5 ± 8.6 s
Large movements Occurrence (Male Sprague-Dawley rats; [6]): 189 ± 32
Inactivity Duration (Male Sprague-Dawley rats; [7]): 556.9 ± 31.1 s
Large movements Duration (Male Sprague-Dawley rats; [7]): 21.5 ± 4.0 s
Large movements Occurrence (Male Sprague-Dawley rats; [7]): 90 ± 16
Inactivity Duration (Male Sprague-Dawley rats; [8]): 697.8 ± 39.7 s
Large movements Duration (Male Sprague-Dawley rats; [8]): 8.7 ± 5.9 s
Large movements Occurrence (Male Sprague-Dawley rats; [8]): 38 ± 25
Inactivity Duration (Male Sprague-Dawley rats; [9]): 729.9 ± 26.8 s
Large movements Duration (Male Sprague-Dawley rats; [9]): 1.7 ± 0.9 s
Large movements Occurrence (Male Sprague-Dawley rats; [9]): 9 ± 4
Inactivity Duration (Male Sprague-Dawley rats; [10]): 723.1 ± 46.5 s
Large movements Duration (Male Sprague-Dawley rats; [10]): 0.2 ± 0.2 s
Large movements Occurrence (Male Sprague-Dawley rats; [10]): 1 ± 1
Inactivity Duration (Male Sprague-Dawley rats; [11]): 762.1 ± 40.7 s
Large movements Duration (Male Sprague-Dawley rats; [11]): 0.6 ± 0.3 s
Large movements Occurrence (Male Sprague-Dawley rats; [11]): 3 ± 1
sedative effect (in words) (Male Sprague-Dawley rats; 0.3-10 mg/kg i.p., 45 minutes and 3 hours after administration): dose-dependent sedative effect; also recorded: dose related sedative effect
affinity for VMAT2 in comparison to VMAT1 (VMAT2): ≥ 200 fold

COc1cc2c(cc1OC)[C@H]1C[C@H](O)[C@@H](CC(C)C)CN1CC2 (single isomer, unassigned) [Isomer A, 3,11b-cis-dihydrotetrabenazine]
Percentage Inhibition of Specific Binding, D2L Receptor (Dopamine D2L Receptor): 87%
permeability in the Caco-2 model (in words) (Caco-2 monolayer): high permeability
Recovery (Caco-2 monolayer): 106.8 ± 7.9%
Percentage Inhibition of Specific Binding, SERT [1]: 19%
Percentage Inhibition of Specific Binding, α2B Receptor (Adrenergic α2B Receptor): 44%
Percentage Inhibition of Specific Binding, α2A Receptor (Adrenergic α2A Receptor): 86%
Percentage Inhibition of Specific Binding, D1 Receptor (Dopamine D1 Receptor): 78%
inhibition at 10 µM ([2]; read-out: Percentage Inhibition of Specific Binding, DAT): 3%
Percentage Inhibition of Specific Binding, I2 Receptor [3]: 74%
Percentage Inhibition of Specific Binding, σ1 Receptor (Sigma σ1 Receptor): 48%
Percentage Inhibition of Specific Binding, D3 Receptor (Dopamine D3 Receptor): 69%
inhibition at 10 µM (Sigma σ2 Receptor; read-out: Percentage Inhibition of Specific Binding, σ2 Receptor): 64%

COc1cc2c(cc1OC)[C@H]1C[C@@H](O)[C@@H](CC(C)C)CN1CC2 (single isomer, unassigned) [Isomer D, 3,11b-cis-dihydrotetrabenazine]
Percentage Inhibition of Specific Binding, D2L Receptor (Dopamine D2L Receptor): 58%
permeability in the Caco-2 model (in words) (Caco-2 monolayer): high permeability
Recovery (Caco-2 monolayer): 106.5 ± 23.8%
Percentage Inhibition of Specific Binding, SERT [1]: 8%
Percentage Inhibition of Specific Binding, α2B Receptor (Adrenergic α2B Receptor): 50%
Percentage Inhibition of Specific Binding, α2A Receptor (Adrenergic α2A Receptor): 87%
Percentage Inhibition of Specific Binding, D1 Receptor (Dopamine D1 Receptor): 38%
Percentage Inhibition of Specific Binding, DAT [2]: 2%
Percentage Inhibition of Specific Binding, I2 Receptor [3]: 55%
Percentage Inhibition of Specific Binding, σ1 Receptor (Sigma σ1 Receptor): 82%
Percentage Inhibition of Specific Binding, D3 Receptor (Dopamine D3 Receptor): 63%
Percentage Inhibition of Specific Binding, σ2 Receptor (Sigma σ2 Receptor; 10 μM): 69%

O=C(CCCN1CCC(O)(c2ccc(Cl)cc2)CC1)c1ccc(F)cc1 [Haloperidol, reference compound]
Inactivity Duration (Male Sprague-Dawley rats; [6]): 637.2 ± 60.1 s
Large movements Duration (Male Sprague-Dawley rats; [6]): 14.8 ± 8.5 s
Large movements Occurrence (Male Sprague-Dawley rats; [6]): 58 ± 33
Inactivity Duration (Male Sprague-Dawley rats; [7]): 723.6 ± 50.2 s
Large movements Duration (Male Sprague-Dawley rats; [7]): 2.2 ± 2.0 s
Large movements Occurrence (Male Sprague-Dawley rats; [7]): 9 ± 8

OC[C@@H](O)[C@@H](O)[C@H](O)[C@H](O)CO [Mannitol]
Papp A→B at 1 h, 50 μM (in vitro): 1.18 ± 0.14 ×10⁻⁶ cm/s
recovery at 1 h, 50 μM (in vitro): 97.1 ± 0.3%

O=C(O)c1ccccc1O [Salicylic Acid]
Papp A→B at 1 h, 50 μM (in vitro): 8.91 ± 8.14 ×10⁻⁶ cm/s
recovery at 1 h, 50 μM (in vitro): 91.5 ± 11.4%

C[C@]12CC[C@H]3[C@@H](CCC4=CC(=O)CC[C@@]43C)[C@@H]1CC[C@@H]2O [Testosterone]
recovery at 1 h, 50 μM (in vitro): 105 ± 10.6%
